The nature of data set [1]: MTT cytotoxicity assay. It counts as cell-based. The following applies: human, lox melanoma cells, read-out: MTT 1 Hr LD50. On the procedure: LOX human melanoma cells, in RPMI medium with 2 mg/ml BSA and 25 mM HEPES, pH 7.4, were seeded at 4×10^4 cells/well in 96-well microtiter plates and grown overnight in a humidified 37° C. incubator. On the following day, the medium was aspirated and wells were washed once with 0.1 ml of DPBS. Compounds (0.1 ml) in DPBS were added to wells in quadruplicate at appropriate concentrations. The cells were then incubated with test compound for 1 hour at 37° C. Wells were aspirated and washed 2× with 0.1 ml DPBS. MTT [3-(4,5-Dimethylthiazol-2-yl)-2,5-diphenyltetrazolium bromide] (0.1 ml of 1 mg/ml solution in PBS from Sigma Chemical Co.) was added to each well and incubated for 2 hour at 37° C. MTT was aspirated and 0.1 ml of 50% N,N-dimethylformamide with 20% sodium dodecyl sulfate was added to each well. Plates were shaken for 10 minutes on a Titer-Plate shaker (Labline) at room temperature. Optical density was read at 570 nm with a plate-reading spectrophotometer (Dynatech MR5000).
For orientation: Formazan colour is commonly taken as a measure of viable cells.

Data set [2] deals with ELAM-1 (Homo sapiens, UniProt P16581). Briefly: cell-based. On the procedure:
Cell adhesion to ELAM-1 was measured essentially as described previously (Pal et al., J. Biomed. Res. 2: 53, 1992). Undifferentiated HL-60 leukemia cells were prelabelled for 30 minutes with 1 μM calcein AM in DPBS without calcium or magnesium, and the cells were washed twice with the same medium before addition to 96-well plates containing monolayers of mouse L cells (5×10^4 cells/well) transfected with cDNA for the adhesion molecule ELAM-1. Adhesion was allowed to proceed for 30 minutes at room temperature before washing and quantitation of the remaining fluorescent HL-60 cells as described above.
ELAM-1 (E-selectin) is a member of the selectin class of adhesion molecules.

Data set [3] deals with M27 murine lung carcinoma cell adhesion to fibronectin. Briefly: M27 lung carcinoma cell adhesion to fibronectin. In kind it is cell-based. The note with it: Mus musculus; read-out: M27 FN IC50. The protocol: (§1) Adhesion assays were run essentially as described previously (Pai et al., J. Biomed. Res. 2: 53, 1992). 96-well plates were coated with human fibronectin (140 ng/well), human vitronectin (75 ng/well), human collagen I (100 ng/well), human collagen IV (100 ng/well), human fibrinogen (1 μg/well), murine laminin (600 ng/well), or polylysine, and incubated overnight in a humidified 37° C. incubator. Excess fibronectin or other substrate was then removed and 0.2 ml of 2 mg/ml bovine serum albumin (BSA)in Dulbecco's phosphate-buffered saline (DPBS) was added to each well, incubated for 2 hours at 37° C., and removed. LOX human melanoma cells, M27 murine lung carcinoma cells or B16F10 mouse melanoma cells were detached from tissue culture flasks with RPMI medium containing 0.2M urea and 10 mM EDTA, and 0.18 ml of cells were added to each well to a final cell concentration of 1×10^5 cells/well. For inhibition studies 20 μl of 10× compound was added to the wells prior to cell addition. Cells were allowed to adhere for 1 hour at 37° C. The wells were then gently washed twice with 0.2 ml DPBS. The fluorescent dye calcein AM (Molecular Probes, Eugene Oreg.) in DPBS (0.1 ml of 1 μM) was added to each well, and the plates were incubated for 1 hour at room temperature. Adherent cells were quantitated by reading the fluorescence on a Cytofluor 2300 fluorescent plate reader (Millipore) at 485 nm excitation and 530 nm emission.

Data set [4] deals with T1, ICAM-1 (Homo sapiens, UniProt P05362).
T1 construct: recombinant soluble ICAM-1 (2 μg/well)
T1 sequence (P05362 28-480 limits assumed): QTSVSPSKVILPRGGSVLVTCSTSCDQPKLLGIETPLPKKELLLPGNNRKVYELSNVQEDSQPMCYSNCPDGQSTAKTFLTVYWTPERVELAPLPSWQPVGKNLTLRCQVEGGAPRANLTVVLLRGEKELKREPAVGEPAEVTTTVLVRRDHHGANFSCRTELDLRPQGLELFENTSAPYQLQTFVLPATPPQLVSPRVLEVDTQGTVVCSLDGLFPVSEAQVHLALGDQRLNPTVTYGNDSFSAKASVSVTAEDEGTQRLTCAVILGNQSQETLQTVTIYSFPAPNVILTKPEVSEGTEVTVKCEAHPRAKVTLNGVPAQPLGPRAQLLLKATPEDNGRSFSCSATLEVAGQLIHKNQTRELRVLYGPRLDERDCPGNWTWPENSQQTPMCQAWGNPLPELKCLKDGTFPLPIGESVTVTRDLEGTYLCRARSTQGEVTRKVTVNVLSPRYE
Briefly: HL-60 cell adhesion to recombinant soluble ICAM-1. The note with it: HL-60 cells. In kind it is cell-based. On the procedure:
For measurement of cell adhesion to ICAM-1, HL-60 human leukemia cells were induced to differentiate in the presence of DMSO for 6 days. Adhesion of DMSO-differentiated HL-60 cells to recombinant soluble ICAM-1 (2 μg/well) was measured as described above for LOX cell adhesion, except that the adhesion was allowed to proceed for 30 minutes, rather than 1 hour, at 37° C.
ICAM-1 is a cell surface adhesion molecule that participates in cell-cell adhesion interactions, rather than cell-matrix adhesion interactions.

For data set [5], the system named is LOX human melanoma cells. Briefly: Tumor cell invasion through collagen/fibronectin coated membranes. In kind it is cell-based. The protocol:
[…] Cell Invasion Through Collagen/Fibronectin Coated Membranes:
Nucleopore polycarbonate membranes (8 μm pore size) were coated with 0.05 ml of type I collagen and allowed to dry overnight. 210 μl of serum free DMEM with BSA was added to each Boyden chamber. Membranes were placed in chambers and upper chambers were screwed on. Human fibronectin (50 μl of 0.1 mg/ml solution in DMEM with BSA) was added to the top chamber and allowed to sit on membranes for 1 hour at room temperature. Compounds (50 μl) at 10× concentration in DMEM with BSA were added to the chambers. LOX melanoma cells were detached from flasks with trypsin/EDTA solution and resuspended in RPMI with 10% fetal bovine serum. Cells were centrifuged, washed 2× with DMEM with BSA, and resuspended in 10 ml of DMEM with BSA. LOX cells (0.45 ml of 7.8×10^5 cells per ml) were added to each chamber and chambers were incubated for 5 hours at 37° C. The medium was removed from the upper chamber by aspiration, the top chamber was unscrewed, and the membrane was removed. The membrane was inverted, pinned to a dissecting tray, and fixed with Diff Quik fixative for 3 minutes The fixative was then removed and Diff Quik Stain was added for 2 minutes. The stain was decanted and membranes were rinsed with distilled water. Membranes were inverted onto glass slides, and non-invading cells were wiped away with a cotton swab. Permount was added to the slide and the membrane was covered with a cover slip. The number of cells that invaded was quantitated on a Nikon TMS microscope with C-2 Image Analyzer software (Olympus Corp.).
The greater potency of the compounds in this assay (IC50 for compound B<400 nM) may result from the longer duration of this assay (5 hours) relative to the fibronectin adhesion assay (1 hour).

The subject of data set [6] is B16-F10 mouse melanoma cell adhesion to fibronectin. In words: B16-F10 melanoma cell adhesion to fibronectin. It counts as cell-based. The following applies: read-out: B16 FN IC50. The protocol:
as §1

Data set [7] relates to LOX human melanoma cell adhesion to human fibronectin. In words: LOX melanoma cell adhesion to fibronectin. In kind it is cell-based. The note with it: Homo sapiens, LOX; for inhibition at 10 µM: read-out: % Inhibition at 10 μM; for inhibition at 50 µM: read-out: % Inhibition at 50 μM. Put shortly:
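Compound added to fibronectin-coated (140 ng/well), BSA-blocked wells before LOX cells (1×10^5/well, detached with urea/EDTA). Cells adhered 1 h at 37 °C, then washed. Adherent cells quantified by calcein AM fluorescence (485/530 nm); IC50 for adhesion inhibition.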

In data set [8] the test system is LOX human melanoma cell adhesion to polylysine. Briefly: LOX melanoma cell adhesion to polylysine. In kind it is cell-based. The following applies: read-out: Poly Lys IC50.
The test system of data set [9] is histamine-induced dyspnea. In words: Bronchodilator (in vivo) Guinea Pig Dyspnea. The note with it: 100 mg/kg, oral, one hour before histamine challenge. An outline of the steps: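 Fasted, unanesthetized guinea pigs (250-350 g) received the test drug orally one hour before exposure to an aerosolized 0.1% histamine solution. Onset of dyspnea was recorded, and data were expressed as number tested over number survived.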

Data set [10] is described as follows: Calcein cytotoxicity assay. It counts as cell-based. The following applies: human, lox melanoma cells, calcein AM assay; for CC50 at 2 h: read-out: 2 Hr Tox LD50.
In data set [11] the test system is LOX human melanoma cell adhesion to human collagen IV. In words: LOX cell adhesion to collagen IV. In kind it is cell-based. The following applies: read-out: Collagen IV IC50. On the procedure:
as §1

Data set [12] has as its system LOX human melanoma cell adhesion to human vitronectin. In words: LOX cell adhesion to vitronectin. It counts as cell-based. The note with it: read-out: Vitronectin IC50. On the procedure: as §1
The test system of data set [13] is LOX human melanoma cell adhesion to murine laminin. Briefly: LOX cell adhesion to laminin. It counts as cell-based. The note with it: read-out: Laminin IC50. The protocol: as §1
Data set [14] deals with LOX human melanoma cell adhesion to human collagen I. Briefly: LOX cell adhesion to collagen I. The note with it: read-out: Collagen I IC50. In kind it is cell-based. On the procedure:
as §1

For data set [15], the system named is LOX human melanoma cell adhesion to human fibrinogen. In words: LOX cell adhesion to fibrinogen. The note with it: read-out: Fibrinogen IC50. In kind it is cell-based. On the procedure:
as §1

Read-outs that look alike come from different tables or passages of the source.

Usually IC50 stands for the concentration at which inhibition is half-maximal. What is called inhibition is the relative decrease from the control value, in per cent.

ELAM-1, sequence (P16581 22-610): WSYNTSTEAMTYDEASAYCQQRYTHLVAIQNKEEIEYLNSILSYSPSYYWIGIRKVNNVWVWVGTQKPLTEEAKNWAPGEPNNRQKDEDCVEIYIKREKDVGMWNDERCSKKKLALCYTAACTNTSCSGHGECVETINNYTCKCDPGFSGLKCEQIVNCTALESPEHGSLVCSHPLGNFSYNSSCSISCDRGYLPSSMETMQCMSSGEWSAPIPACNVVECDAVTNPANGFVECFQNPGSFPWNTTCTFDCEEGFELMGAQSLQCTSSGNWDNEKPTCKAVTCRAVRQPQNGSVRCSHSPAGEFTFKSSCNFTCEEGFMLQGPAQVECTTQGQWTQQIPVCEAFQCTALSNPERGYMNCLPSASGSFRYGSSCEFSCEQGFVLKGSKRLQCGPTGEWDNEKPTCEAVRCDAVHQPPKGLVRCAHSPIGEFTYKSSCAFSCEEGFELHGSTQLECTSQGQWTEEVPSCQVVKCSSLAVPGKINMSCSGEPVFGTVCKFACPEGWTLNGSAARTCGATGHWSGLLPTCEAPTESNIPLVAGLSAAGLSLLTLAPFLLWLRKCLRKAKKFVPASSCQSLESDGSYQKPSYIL

In the case of `CSc1ccc(C2=C3CC4CCC(C3c3ccccc32)N4C)cc1` (centres unmarked) [F, 1SR:3RS:9b-1,3 Ethano-2-methy-5-(p-methylmercaptophenyl)-1,3,4,9b-tetrahydro-2H-indeno-(2h-indeno) [1,2-c]pyridine], in data set [1], the CC50 at 1 h stood at 51.7 µM. Moreover, the half-inhibitory concentration (IC50) was greater than 50 µM in data set [2]; 8.7 µM in data set [3]; 16.8 µM in data set [4]; 520 nM in data set [5] (Homo sapiens, 5 hours, read-out: Invasion IC50); 24.2 µM in [6]; 5.1 µM in data set [7] (1 h, read-out: LOX FN IC50). In addition, in [8], the IC50 came out at 24.4 µM. The “inhibition of in vitro tumor cell invasion” value in data set [5] (fibronectin/collagen matrix) is “inhibit in vitro tumor cell invasion through a fibronectin/collagen matrix”. The inhibition at 10 µM in [7] is 49.4%. The inhibition at 50 µM in data set [7] is 102%. Besides, the responders at 100 mg/kg in data set [9] (Cavia porcellus, 1 h, read-out: DYSP survivors (converted)) was 0%. Moreover, in data set [10], the CC50 at 2 h was 43.3 µM. In data set [10] (6 hours, read-out: 6 Hr Tox LD50), the CC50 at 6 h was 19.9 µM.
For `CN1C2CCC1C1C(=C(c3ccccc3C(F)(F)F)c3ccccc31)C2` (centres unmarked) [Compound S], the half-inhibitory concentration (IC50) is 19.2 µM in data set [11]; 20.2 µM in data set [12]; 7.7 µM in [13]; 11.6 µM in data set [14]; 17.7 µM in [7] (Table 4, 1 hour adhesion, read-out: LOX FN IC50); 17.7 µM in data set [7] (Table 5, read-out: Fibronectin IC50). The results for the IC50 in [8] and in data set [15] were greater than 250 µM and 15.7 µM, respectively. Besides, the inhibition at 10 µM in data set [7] (10 μM) is -4.4%. In [7] (50 μM), the inhibition at 50 µM is 90.2%. The DYSP survivors in [9] is listed as 0/3. Further, the CC50 at 2 h in data set [10] is greater than 250 µM.

The record behind these values is patent publication US5461057A, “Hydro-ethano-indeno-pyridines” (priority 1994, dated 1995).
